Eight molecules from patent US9061041B2, “2′-substituted nucleoside derivatives and methods of use thereof for the treatment of viral diseases” (Merck Sharp & Dohme Corp., priority 2011, dated 2015) can be followed below.

For data set [1], the target named is HCV NS5B RNA-dependent RNA polymerase (1b-BKΔ55) (Hepatitis C virus genotype 1b (isolate BK) (HCV), UniProt P26663). The data set is described as follows: biochemical.
The subject of data set [2] is human cryopreserved hepatocyte. The data set is classed as in vitro ADME. The note with it: human hepatocytes, NTP level over Ki.
Procedure: A 2 mM stock solution of the prodrug test compound is prepared in 5% DMSO/95% MeOH to provide a final sample concentration of 10 μM. A 5 μL aliquot is removed from this stock solution and added to 1 mL of either a rat or human cryopreserved hepatocyte sample to provide a control sample at a concentration of 1 million cells/mL. This sample is assayed in triplicate and used as a test sample.
Human and rat hepatocytes are removed from liquid nitrogen storage and thawed by submerging the hepatocyte tube into a pre-heated 37° C. waterbath and gently shaking the tube back & forth until thawed. The thawed hepatocytes are then gently poured into a container of Hepatocyte Basal Medium (50 mL, pre-warmed to 37° C.) and washed. […]
A 1 mL aliquot is removed from the 1 million cells/mL final hepatocyte suspension, analyzed in triplicate and placed into 20 mL scintillation vial without a cap. […]
The incubated hepatocyte suspension samples are transferred to a micro-centrifuge tube using a transfer pipette and centrifuged at 500 rpm for 4 minutes at room temperature. […] The resulting extract solution is then stored in a refrigerator at 4° C. until ready for use, at which point the sample is first subjected to vortexing/sonication to ensure that all hepatocyte cells have burst. […]
In data set [3] the test system is replicon cells (1b-Con1). The data set is described as follows: Replicon activity assay (1b-Con1). The format is cell-based, HCV. Conditions: Hepatitis C virus, 72 h, three days post-dosing. A general note: Replicon systems follow genome replication, usually without infectious particles.
Data set [4] concerns replicon cells (1b-Con1). Description: Cytotoxicity MTS assay in replicon cells. Conditions: CC50, MTS assay, three days post dosing. Background: Formazan colour is commonly taken as a measure of viable cells.

Structures are written as SMILES. Bounds are passed on as bounds.

Sequence of HCV NS5B RNA-dependent RNA polymerase (1b-BKΔ55) (P26663 2420-2955): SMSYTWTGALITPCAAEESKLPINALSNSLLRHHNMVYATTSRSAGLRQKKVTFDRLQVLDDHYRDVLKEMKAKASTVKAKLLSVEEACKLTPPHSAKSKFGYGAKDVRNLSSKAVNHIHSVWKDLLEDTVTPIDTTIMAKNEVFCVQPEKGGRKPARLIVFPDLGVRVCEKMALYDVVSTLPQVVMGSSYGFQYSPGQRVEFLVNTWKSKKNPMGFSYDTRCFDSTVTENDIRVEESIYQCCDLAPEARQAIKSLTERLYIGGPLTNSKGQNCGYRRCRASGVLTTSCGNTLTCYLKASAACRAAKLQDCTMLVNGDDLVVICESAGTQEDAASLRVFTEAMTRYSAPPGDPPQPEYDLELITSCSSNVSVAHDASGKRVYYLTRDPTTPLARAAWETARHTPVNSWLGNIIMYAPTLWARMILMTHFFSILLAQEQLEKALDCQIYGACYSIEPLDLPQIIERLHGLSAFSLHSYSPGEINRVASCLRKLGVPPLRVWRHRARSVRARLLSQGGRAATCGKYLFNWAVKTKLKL

In general, IC50 refers to the concentration needed to halve the response being measured. Lower therefore signals greater potency. `C[C@@]1(N)[C@H](O)[C@@H](COP(=O)(O)OP(=O)(O)OP(=O)(O)O)O[C@H]1n1cnc2c(=O)[nH]c(N)nc21` [Compound 80]: the 50% inhibitory concentration (IC50) in data set [1] was determined as 600 nM.

In the case of `C[C@@]1(N)[C@H](O)[C@@H](COP(=O)(O)OP(=O)(O)OP(=O)(O)O)O[C@H]1n1ccc(N)nc1=O` [Compound 81], in data set [1], the concentration for half-maximal inhibition (IC50) is 2300 nM.

Regarding `C[C@@]1(N)[C@H](O)[C@@H](COP(=O)(O)OP(=O)(O)OP(=O)(O)O)O[C@H]1n1ccc(=O)[nH]c1=O` [Compound 82], half-maximal inhibition in data set [1] (IC50) required 13000 nM.

In the case of `CCOC(=O)[C@H](C)NP(=O)(OC[C@H]1O[C@@H](n2cnc3c(OC)nc(N)nc32)[C@](C)(N)[C@@H]1O)Oc1ccccc1` (some centres unmarked) [drawing 225], in data set [2], the “Human Hepatocyte NTP (4 hour at 10 μM)/Ki” value came out at 32 x.

For `CC(C)OC(=O)[C@H](C)NP(=O)(OC[C@H]1O[C@@H](n2ccc(=O)[nH]c2=O)[C@](C)(N)[C@@H]1O)Oc1ccccc1` (some centres unmarked) [drawing 226], the “Human Hepatocyte NTP (4 hour at 10 μM)/Ki” value in data set [2] is on record as 30 x.

The term EC50 denotes the concentration needed to bring the measured effect to its halfway point. High values mean lower potency in that assay, low ones higher potency in that assay. As for `CCOc1nc(N)nc2c1ncn2[C@@H]1O[C@H](COP(=O)(N[C@@H](C)C(=O)OC)Oc2ccccc2)C(O)[C@@]1(C)N` (some centres unmarked) [drawing 243], the concentration for a half-maximal effect (EC50) in data set [3] was 2500 nM. In data set [4], the Cytotoxicity was >100 µM.

`C[C@@]1(N)[C@@H]2OP(=O)(OC3CCC3)OC[C@H]2O[C@H]1n1ccc(N)nc1=O` (some centres unmarked) [drawing 247] had an EC50 in data set [3] of 2800 nM. For the same molecule, in data set [4], the Cytotoxicity was >50 µM.

The molecule `CCOC(=O)[C@H](C)NP(=O)(OC[C@H]1O[C@@H](n2cnc3c(OC)nc(N)nc32)[C@](C)(N)[C@@H]1O)Oc1ccccc1` (some centres unmarked) [drawing 248] gave an EC50 in data set [3] of 100 nM. The Cytotoxicity in data set [4] is >100 µM.
